Values after ≈ are worked out from the molar mass of the structure shown.
How the values were obtained:
mPTP = mPTP activity assay in isolated rat liver mitochondria (Ca2+ retention, Fluo5N, FLIPR); format: biochemical; conditions: for mPTP Rat liver pIC50*: isolated rat liver mitochondria, average value from multiple experiments (n ≥ 2)
Description: Pharmacological inhibition or modulation of the mPTP can be measured in well characterised ‘Ca^2+ retention’ assays performed in isolated mitochondria. In vitro, isolated mitochondria rapidly sequester exogenous Ca^2+ until the intramitochondrial Ca^2+ concentration reaches the threshold for mPTP activation. Once the pore is activated, mitochondrial integrity is compromised and the stored Ca^2+ is released. The distribution of Ca^2+ between extra- and intra-mitochondrial compartments can be measured in real time with the use of membrane-impermeant Ca^2+ sensitive fluorescent dyes. Depending on the configuration of the assay, inhibition or modulation of the mPTP either delays the opening of the pore or increases the concentration of Ca^2+ required to induce mPTP opening.
mPTP activity was measured in mitochondria freshly isolated from female Sprague Dawley (250 to 300 gram) rat livers using the following method. Cervical dislocation was performed on the rat. The liver was then perfused in-situ with ˜40 ml cold Dulbecco's Phosphate Buffered Saline (DPBS) prior to dissection and transferred into 30 ml Isolation Buffer (250 mM Sucrose, 10 mM KCl, 1 mM EGTA, 1 mM EDTA, 25 mM HEPES, adjusted to pH 7.5 with 1 M NaOH). Each lobe of the liver was then removed from the buffer, minced using tweezers and a scalpel into ˜5 mm pieces then transferred into a 50 ml Potterton dounce homogenization tube on ice containing 30 ml ice-cold centrifugation buffer (300 mM Trehalose, 25 mM HEPES, 1 mM EGTA, 1 mM EDTA, 10 mM KCl, adjusted to pH 7.5 with 1 M NaOH and supplemented with 0.1% bovine serum albumin (BSA) and complete protease inhibitor cocktail (one tablet of inhibitor per 50 mls of buffer). Homogenisation was carried out using a teflon pestle at 1800 rpm. The slurry was centrifuged at 800 g for 10 min at 4° C., then the supernatant centrifuged at 10,000 g for 10 min. The pellet was washed once with FLIPR assay buffer (75 mM Mannitol, 25 mM Sucrose, 5 mM Potassium Phosphate Monobasic, 20 mM Tris base, 100 mM KCl, 0.1% BSA adjusted to pH 7.4 with 5 M HCl) centrifuged again, then resuspended in FLIPR assay buffer to a concentration of 8.8 mg/ml protein.
Test compounds (10 mM stock in DMSO) were serially diluted in DMSO in half log steps to generate 10 test concentrations (final concentrations in assay 30 μM to 1 nM). An intermediate dilution of 5 μl DMSO samples into 247 μl FLIPR assay buffer was carried out prior to transfer of 5 μl into duplicate wells of a 384 well polypropylene assay plate. Control wells were 0.5% (v/v) DMSO and 5 μM cyclosporin A.
A stock mitochondria/Fluo5N assay solution was prepared in 5.6 ml FLIPR assay buffer (at RT) supplemented with succinate disodium salt (10 mM), rotenone (1 μM), Fluo5N pentapotassium salt (2 μM) and 1 ml mitochondria suspension, then transferred (15 μl) into the assay plate containing test compounds and incubated for 10 min at RT. Assay plates were then transferred to a FLIPR Tetra plate reader (Molecular Devices). Dye fluorescence was then measured every 3 sec for a total of 10 min. After 12 sec, a 2.5 μl bolus of CaCl2 (75 μM) was added from a source plate containing 675 μM CaCl2 in FLIPR assay buffer. IC50 values for test compounds were calculated using the fluorescence value collected at the 10 min timepoint with % inhibition calculated using the DMSO control and cyclosporin A values as […] respectively.

PBS solubility = format: physicochemical; conditions: aqueous buffer, kinetic from dmso stock; PBS pH 7.4, 2 hr at 25° C.
Experimental: (§1) Test compounds were prepared as 10 mM stocks in DMSO and 15 μl samples transferred in duplicate into 1.5 mL glass flat bottom vials (BioTech Solutions). Fasted state simulated intestinal fluid (FaSSIF) or PBS (pH 7.4) was added to each vial to final volume of 500 μl. One PTFE encapsulated stir stick (V&P Scientific) was placed in each vial before sealing with PTFE/SIL plugs (BioTech Solutions). Vials were shaken at 1100 rpm for 2 hr at 25° C. Samples were then filtered through MultiScreen Solvinert filter plates (Millipore) via vacuum filtration. Aliquots of filtrate (5 μl) plus 5 μl DMSO were diluted in 490 μl 50% acetonitrile in water containing internal standard. The filtrate was analysed and quantified against a standard of known concentration using LC-MS/MS. Solubility values of the test compound and control compound were calculated as follows: [Sample]=(Area ratiosample*INJ VOL STD*DFsample*[STD])/(Area ratio STD*INJ VOLsample).

[1] = Hepatocyte clearance assay, rat; format: in vitro ADME; conditions: cryopreserved primary rat hepatocytes, average value from two experiments, read-out: Rat heps intrinsic clearance (CLint)
Experimental: (§2) In vitro clearance studies were performed in primary rat and human hepatocytes (BioIVT). Vials of cryopreserved rat or human hepatocytes were thawed in a 37° C. water bath for 2 min. Cells were transferred into thawing medium (Williams' Medium E containing 30% Percoll, 1× GlutaMAX-1, 15 mM HEPES, 5% fetal bovine serum (FBS), 4 μg/ml insulin, 1 μM dexamethasone), centrifuged at 100 g for 10 min then resuspended in culture medium (Leibovitz's L-15 Medium) at a concentration of 0.5×10^6 viable cells/mL (number of viable cells assessed using AO/PI staining). Hepatocytes (198 μL) were transferred into wells of a 96-well non-coated plate and placed in a 37° C. incubator for 10 min. Test compound solutions were prepared from 10 mM stocks in DMSO, diluted to 100 μM in 50% (v/v in water) acetonitrile. Test compound samples (2 μl) were added to each well of hepatocytes and incubated at 37° C. Samples (25 μl) were collected at t=0, 15, 30, […] and 120 min, mixed with 6 volumes (150 μl) of acetonitrile containing internal standard (100 nM alprazolam, 200 nM caffeine and 100 nM tolbutamide), vortexed for 5 min and centrifuged for 45 min at 3220 g. An aliquot of supernatant (100 μL) was diluted with 100 μL ultra-pure water, and the mixture was used for LC/MS/MS analysis. All incubations were performed in duplicate. Peak areas were determined from extracted ion chromatograms. The slope value, k, was determined by linear regression of the natural logarithm of the remaining percentage of the parent drug vs. incubation time curve. The in vitro half-life (in vitro t1/2) was determined from the slope value: in vitro t1/2=0.693/k. Conversion of the in vitro t1/2 (in min) into the in vitro intrinsic clearance (in vitro CLint, in μL/min/1×10^6 cells) was done using the following equation (mean of duplicate determinations): • in vitro CLint=kV/N • V=incubation volume (0.2 mL) • N=number of hepatocytes per well (0.1×10^6 cells). Microsomal Clearance Assay

[2] = Microsomal clearance assay, rat liver microsomes; format: in vitro ADME; conditions: average value from two experiments, read-out: Rat liver microsomes intrinsic clearance (CLint)
Experimental: The microsomal stability of test compounds was evaluated using rat liver microsomes (BioIVT) with and without the cofactors nicotinamide adenine dinucleotide phosphate (NADPH) and uridine-diphosphate-glucuronic acid (UDPGA). Reactions were performed in a final volume of 250 μl pre-warmed (37° C.) 100 mM phosphate buffer containing 5 mM MgCl2, 0.025 mg/ml alamethicin, and 0.5 mg/ml rat liver microsomes. NADPH and UDPGA were included at 1 mM and 2 mM respectively, where appropriate. Reactions were started with the addition of 1 μM (final concentration) test compound. Verapamil was used as the positive control. Solutions were incubated in a water bath at 37° C. and aliquots collected at 0.5, 5, 15, 30 and 60 min. Reactions were stopped by the addition of 5 volumes of cold acetonitrile with internal standards (200 nM caffeine and 100 nM tolbutamide). Samples were centrifuged at 3220 g for 40 min. An aliquot of supernatant was diluted 1:1 In ultra-pure H20, then used for LC-MS/MS analysis. Peak areas were determined from extracted ion chromatograms. The slope value, k, was determined by linear regression of the natural logarithm of the remaining percentage of the parent drug vs. incubation time curve. The in vitro half-life (in vitro t1/2) was determined from the slope value: in vitro t1/2=0.693/k. Conversion of the in vitro t1/2 (min) into the in vitro intrinsic clearance (in vitro CLint, in μL/min/mg protein) was done using the following equation (mean of duplicate determinations): in vitro Clint=(0.693/t1/2)*(Vol of incubation (μl)/amount of protein (mg)).

FaSSIF solubility = format: physicochemical; conditions: kinetic from dmso stock, Fasted state simulated intestinal fluid, 2 hr at 25° C.
Experimental: as §1

[3] = Hepatocyte clearance assay, human; format: in vitro ADME; conditions: cryopreserved primary human hepatocytes, average value from two experiments, read-out: Human heps intrinsic clearance (CLint)
Experimental: as §2

| Compound | mPTP Rat liver pIC50* (mPTP) | solubility at 2 h (PBS solubility) | hepatocyte CLint at 1 µM [1] | microsomal CLint at 1 µM [2] | solubility at 2 h (FaSSIF solubility) | hepatocyte CLint at 1 µM [3] | activity in the rat liver mitochondria assay (mPTP; comparison among Example compounds, in words) |
| --- | --- | --- | --- | --- | --- | --- | --- |
| C[C@@H]1CCCC[C@H]1NC(=O)/C=C/c1ccc2cn[nH]c2c1 (racemic) [Example 4, (E)-3-(1H-indazol-6-yl)-N-((1R,2R)-2-methylcyclohexyl)acrylamide] | 6.3 | 5.2 µM (≈ 1.47 µg/mL) | 68 µL/min/1e6 cells | 39 µL/min/mg | – | – | – |
| Cc1c(F)cccc1NC(=O)/C=C/c1ccc2cn[nH]c2c1C [Example 1, (E)-N-(3-fluoro-2-methylphenyl)-3-(7-methyl-1H-indazol-6-yl)acrylamide] | 7.1 | 0.11 µM (≈ 0.034 µg/mL) | – | 118 µL/min/mg | 2 µM (≈ 0.619 µg/mL) | – | – |
| Cc1ccc(F)c(C)c1NC(=O)/C=C/c1ccc2cn[nH]c2c1 [Example 28, (E)-N-(3-fluoro-2,6-dimethylphenyl)-3-(1H-indazol-6-yl)acrylamide] | 8.1 | – | – | – | – | 21 µL/min/1e6 cells | highest activity |
| O=C(/C=C/c1ccc2cn[nH]c2c1)Nc1ccccc1CN1CC(F)C1 [Example 31, (E)-N-(2-((3-fluoroazetidin-1-yl)methyl)phenyl)-3-(1H-indazol-6-yl)acrylamide] | 6.3 | 59 µM (≈ 20.7 µg/mL) | 101 µL/min/1e6 cells | – | – | 36 µL/min/1e6 cells | – |
| Cc1c(F)cccc1NC(=O)/C=C/c1cnc2cn[nH]c2c1 [Example 34, (E)-N-(3-fluoro-2-methylphenyl)-3-(1H-pyrazolo[4,3-b]pyridin-6-yl)acrylamide] | 6.0 | 13 µM (≈ 3.85 µg/mL) | – | 51 µL/min/mg | – | – | – |
| O=C(/C=C/c1ccc2cn[nH]c2n1)NC1CCc2ccccc21 (centres unmarked) [Example 36, (E)-N-(2,3-dihydro-1H-inden-1-yl)-3-(1H-pyrazolo[3,4-b]pyridin-6-yl)acrylamide] | 6.3 | – | – | – | 45 µM (≈ 13.7 µg/mL) | 12 µL/min/1e6 cells | – |

Now from value to compound, other results behind:

| mPTP Rat liver pIC50* (mPTP) | solubility at 2 h (PBS solubility) | hepatocyte CLint at 1 µM [1] | microsomal CLint at 1 µM [2] | solubility at 2 h (FaSSIF solubility) | hepatocyte CLint at 1 µM [3] | Compound | activity in the rat liver mitochondria assay (mPTP; comparison among Example compounds, in words) |
| --- | --- | --- | --- | --- | --- | --- | --- |
| 7.6 | 10 µM (≈ 3.03 µg/mL) | 33 µL/min/1e6 cells | 59 µL/min/mg | – | 14 µL/min/1e6 cells | O=C(/C=C/c1ccc2cn[nH]c2c1)NC1CCc2ccccc21 (centres unmarked) [Example 2, (E)-N-(2,3-dihydro-1H-inden-1-yl)-3-(1H-indazol-6-yl)acrylamide] | – |
| 6.3 | 2.5 µM (≈ 0.803 µg/mL) | – | 55 µL/min/mg | – | – | O=C(/C=C/c1ccc2cn[nH]c2c1)NC1CCc2cccc(F)c21 (centres unmarked) [Example 5, (E)-N-(7-fluoro-2,3-dihydro-1H-inden-1-yl)-3-(1H-indazol-6-yl)acrylamide] | – |
| 7.2 | 4.1 µM (≈ 1.32 µg/mL) | – | 38 µL/min/mg | – | – | O=C(/C=C/c1ccc2cn[nH]c2c1)NC1CCc2cc(F)ccc21 (centres unmarked) [Example 7, (E)-N-(5-fluoro-2,3-dihydro-1H-inden-1-yl)-3-(1H-indazol-6-yl)acrylamide] | – |
| 6.9 | 6.3 µM (≈ 2.02 µg/mL) | – | 41 µL/min/mg | – | – | O=C(/C=C/c1ccc2cn[nH]c2c1)NC1CCc2c(F)cccc21 (centres unmarked) [Example 8, (E)-N-(4-fluoro-2,3-dihydro-1H-inden-1-yl)-3-(1H-indazol-6-yl)acrylamide] | – |
| 7.2 | 0.4 µM (≈ 0.129 µg/mL) | 61 µL/min/1e6 cells | – | 11 µM (≈ 3.53 µg/mL) | – | O=C(/C=C/c1ccc2cn[nH]c2c1F)NC1CCc2ccccc21 (centres unmarked) [Example 9, (E)-N-(2,3-dihydro-1H-inden-1-yl)-3-(7-fluoro-1H-indazol-6-yl)acrylamide] | – |
| 7.3 | 1.4 µM (≈ 0.45 µg/mL) | 45 µL/min/1e6 cells | 58 µL/min/mg | – | 26.7 µL/min/1e6 cells | O=C(/C=C/c1cc(F)c2cn[nH]c2c1)NC1CCc2ccccc21 (centres unmarked) [Example 11, (E)-N-(2,3-dihydro-1H-inden-1-yl)-3-(4-fluoro-1H-indazol-6-yl)acrylamide] | – |
| 7.0 | – | 95 µL/min/1e6 cells | – | 4 µM (≈ 1.35 µg/mL) | – | O=C(/C=C/c1cc(Cl)c2cn[nH]c2c1)NC1CCc2ccccc21 (centres unmarked) [Example 13, (E)-3-(4-chloro-1H-indazol-6-yl)-N-(2,3-dihydro-1H-inden-1-yl)acrylamide] | – |

Source: patent publication US12497359B2, “Acrylamide derivatives” (NRG Therapeutics Ltd, priority 2020, dated 2025)
